Data published in the supplement of paper PMC8960247.
Where a name gives a salt, the structure may show the parent alone. ± gives the standard error.

Assays:
[1] = test system: 621-102 (TSC2-deficient); assay: relative viability vs DMSO; higher = less cytotoxic; conditions: serum: 10% FBS, 72 h
[2] = test system: 621-103 (TSC2-rescued); assay: as above; conditions: serum: 10% FBS, 72 h
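Note: immortalized renal angiomyolipoma cells stably carrying empty vector or TSC2, dosed in 384-well plates in DMEM, viability normalized to vehicle-treated wells within each plate.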

Compound	relative viability ([1]; 0.0001 µM)	relative viability ([1]; 0.001 µM)	relative viability ([1]; 0.01 µM)	relative viability ([1]; 0.1 µM)	relative viability ([1]; 1 µM)	relative viability ([1]; 10 µM)	relative viability ([2]; 0.0001 µM)	relative viability ([2]; 0.001 µM)	relative viability ([2]; 0.01 µM)	relative viability ([2]; 0.1 µM)	relative viability ([2]; 1 µM)	relative viability ([2]; 10 µM)
CC(C)(C)c1cc(C(C)(C)C)c(NC(=O)c2c[nH]c3ccccc3c2=O)cc1O [VX-770]	97.8 ± 4.5%	104 ± 5.4%	116 ± 2.3%	119 ± 3.2%	111 ± 3.6%	59.3 ± 16%	101 ± 4.3%	117 ± 6.1%	114 ± 4.1%	110 ± 3.3%	112 ± 2.9%	32.3 ± 8.3%
Nc1ccccc1NC(=O)c1ccc(CNc2nccc(-c3cccnc3)n2)cc1 [MGCD0103 (Mocetinostat)]	102.2 ± 1%	100.9 ± 0.78%	93.91 ± 0.76%	83.5 ± 1.2%	82.8 ± 1.6%	34.1 ± 1.1%	99.5 ± 1.3%	102 ± 1.1%	105.6 ± 0.9%	93.1 ± 2.1%	68.6 ± 0.98%	18.5 ± 0.42%
CN1C2CCCC1CC(NC(=O)c1nn(C)c3ccccc13)C2 (stereo not given) [Granisetron HCl]	101 ± 3.8%	99.5 ± 1%	94.6 ± 1.2%	99.56 ± 0.18%	102.3 ± 0.95%	95.1 ± 1.5%	105.6 ± 0.89%	102 ± 1.7%	106.4 ± 0.23%	106 ± 5.2%	103 ± 4.2%	102 ± 3%
CC(C)(C(=O)NCC(F)(F)C(F)(F)F)C(=O)N[C@@H]1C(=O)Nc2ccccc2-c2ccccc21	110 ± 1.1%	115 ± 1.2%	119.5 ± 0.86%	113.8 ± 0.66%	114.3 ± 1.1%	113 ± 1.8%	102.1 ± 0.81%	104 ± 1.3%	104.2 ± 0.26%	106 ± 1.1%	103.7 ± 0.41%	101.8 ± 0.77%
Cc1c(NC(=O)OC[C@@H]2COCCN2)cn2ncnc(Nc3ccc4c(cnn4Cc4cccc(F)c4)c3)c12	101 ± 2.7%	104 ± 2%	97.6 ± 2%	104.2 ± 0.79%	96.3 ± 2.8%	81.33 ± 0.65%	100.9 ± 0.54%	100 ± 1.2%	102 ± 1.5%	101.3 ± 0.88%	101 ± 1.9%	82.5 ± 5.9%
CC(C)(C)c1cc(NC(=O)Nc2ccc(-c3cn4c(n3)sc3cc(OCCN5CCOCC5)ccc34)cc2)no1 [AC-220]	81.8 ± 3.2%	84.77 ± 0.0088%	87.3 ± 3.6%	84.9 ± 5.7%	70.1 ± 1.2%	53.1 ± 3%	96.29 ± 0.69%	98 ± 1.9%	99.4 ± 2.7%	97.8 ± 2.8%	76.5 ± 4.7%	44.7 ± 1.2%
O=c1cc(-c2ccc(O)cc2)oc2cc(O)cc(O)c12 [Apigenin]	90.7 ± 0.81%	105 ± 2.6%	110 ± 2.2%	113 ± 5.3%	111 ± 2.9%	112 ± 5.7%	112 ± 4.7%	128 ± 1.4%	108.9 ± 0.2%	115 ± 4.3%	111 ± 4.9%	125 ± 4%
OCCN(CCO)c1nc(N2CCCCC2)c2nc(N(CCO)CCO)nc(N3CCCCC3)c2n1 [Dipyridamole]	102 ± 3%	98.3 ± 2.2%	101.5 ± 1%	95.2 ± 2.5%	96.7 ± 2.7%	93.4 ± 8.5%	101 ± 2.4%	103.1 ± 0.96%	103 ± 2.1%	104 ± 5.4%	101 ± 6.3%	101 ± 1.5%
C[C@]1(c2nc3c(C(N)=O)cccc3[nH]2)CCCN1 [ABT-888]	129 ± 4.1%	118 ± 1.3%	124.3 ± 1.1%	120 ± 1.6%	122 ± 2.6%	104 ± 3.6%	104.8 ± 1%	103.4 ± 0.84%	104 ± 0.11%	104.7 ± 0.51%	105 ± 1.5%	103 ± 1.3%
O=c1cc(N2CCOCC2)oc2c(-c3ccccc3)cccc12	95.6 ± 1.2%	111 ± 5%	119.9 ± 0.6%	113.8 ± 0.48%	104 ± 1.5%	80.2 ± 1.1%	99.7 ± 1.1%	100.3 ± 0.45%	99.792 ± 0.068%	97.55 ± 0.48%	101.1 ± 0.21%	65.2 ± 1.9%
Nc1nc(=O)n([C@@H]2CS[C@H](CO)O2)cc1F [Emtricitabine]	92.1 ± 2.5%	90.4 ± 1.3%	95.4 ± 1%	88.7 ± 4.1%	92 ± 9.3%	83.5 ± 6.5%	106 ± 1.1%	110 ± 6.2%	101 ± 4.7%	105 ± 2.6%	100 ± 3.7%	98.4 ± 1.5%
CN(C)CC/C=C1/c2ccccc2COc2ccc(CC(=O)O)cc21 [Olopatadine HCl (Opatano)]	114 ± 2.8%	114 ± 2.6%	108 ± 1.5%	113 ± 3.7%	105 ± 1.6%	97.2 ± 6.5%	104 ± 5%	103 ± 5.9%	97 ± 4%	102 ± 1.3%	98.51 ± 0.44%	103 ± 4.8%
C[C@H](Cn1cnc2c(N)ncnc21)OCP(=O)(O)O [Tenofovir]	66.9 ± 0.97%	73.2 ± 1.9%	75.6 ± 11%	71.7 ± 5%	70.8 ± 6.7%	60.2 ± 5.8%	102 ± 5.5%	102 ± 1.9%	103 ± 5.3%	109 ± 4.2%	94 ± 7.9%	92.6 ± 4.3%
Oc1ccc([C@@H]2Oc3ccc(O)cc3[C@@H]3CCC[C@@H]32)cc1	120.08 ± 0.051%	124 ± 1.3%	105 ± 1.5%	108 ± 2.7%	113 ± 5.1%	65.5 ± 4%	106 ± 1.5%	101.57 ± 0.083%	103 ± 1.1%	106 ± 2.1%	103.1 ± 0.19%	66.2 ± 5.5%
CC(C)n1nc(-c2cc3cc(O)ccc3[nH]2)c2c(N)ncnc21 [PP242]	93.3 ± 6.1%	95.7 ± 2.2%	103 ± 2%	101.44 ± 0.046%	46 ± 1.6%	16.86 ± 0.071%	107 ± 6.5%	107.2 ± 0.94%	103 ± 2.7%	80.1 ± 1.7%	38 ± 0.41%	23.13 ± 0.076%
C[C@@H]1CN(CC(=O)Nc2ccc3c(c2)Cc2cccc(-c4cc(=O)cc(N5CCOCC5)o4)c2S3)C[C@H](C)O1	101 ± 1.9%	96.34 ± 0.66%	96.06 ± 0.86%	97.1 ± 2.1%	97.3 ± 1.5%	65.9 ± 0.85%	79.7 ± 1.1%	86 ± 3.5%	83 ± 0.38%	84.6 ± 1%	77.8 ± 3.1%	59.4 ± 5.5%
COC(=O)C1=C(C)NC(C)=C(C(=O)OCC(C)C)C1c1ccccc1[N+](=O)[O-] (stereo not given) [Nisoldipine]	100 ± 4.6%	95.6 ± 4.7%	104.6 ± 0.62%	106.7 ± 0.045%	111 ± 2.9%	65.91 ± 0.65%	110 ± 5.8%	109 ± 7.6%	108 ± 4%	111 ± 6.1%	100 ± 2.3%	67.8 ± 4.5%
C[C@@](Cc1ccc(O)c(O)c1)(NN)C(=O)O [Carbidopa]	97.3 ± 3.2%	104 ± 5.4%	90.03 ± 0.71%	103 ± 1.6%	99.6 ± 2.6%	89.7 ± 1.3%	92 ± 1.9%	103.2 ± 0.12%	93.7 ± 2.5%	107 ± 2.1%	104 ± 4.8%	92.1 ± 1.4%
COc1cc(Nc2ncc(F)c(Nc3ccc4c(n3)N(COP(=O)(O)O)C(=O)C(C)(C)O4)n2)cc(OC)c1OC	111.5 ± 1.1%	107.4 ± 0.97%	106.9 ± 0.48%	94.91 ± 0.5%	87.5 ± 2%	57.13 ± 0.27%	103 ± 1.3%	104.7 ± 0.53%	101 ± 1.2%	102 ± 5%	78.9 ± 2.7%	14.7 ± 0.48%
CCOC(=O)[C@H](CCc1ccccc1)N[C@H]1CCc2ccccc2N(CC(=O)O)C1=O [Benazepril HCl]	68 ± 2.9%	82 ± 2.6%	83 ± 5.2%	81.1 ± 7.4%	74.6 ± 9.9%	69.8 ± 4.9%	82.5 ± 11%	89.7 ± 11%	89.6 ± 6.1%	98.8 ± 6.3%	95.2 ± 4.9%	89.9 ± 6.7%
